# Measurements from patent US20100280358A1, “SINGLE BREATH-HOLD SYSTEM AND METHOD FOR DETECTION AND ASSESSMENT OF MULTI-ORGAN PHYSIOLOGIC, MORPHOLOGIC AND STRUCTURAL CHANGES” (University of Virginia Patent Foundation, priority 2009, published 2010).
# What was measured:
# [1] = tested on: rabbit model of stereotactic lung radiosurgery; experiment: SB-CSI with hp Xe-129 in a rabbit model of stereotactic lung radiosurgery with and without a radioprotector; format: in vivo, New Zealand rabbits; details: for mean difference between the lungs (SB-CSI maps, mean±SD): right lower lobe 3 x 11 Gy, 50 mg/Kg I.V. 20 minutes before each radiation dose, baseline 3.2%±3.5%
# From the text: In order to study the efficacy of this technique for detecting changes in lung physiology and morphology, it was applied to a rabbit model of stereotactic lung radiosurgery with and without a radioprotector. The lower lobes of the right lung of nine New Zealand rabbits were irradiated with 3 doses of 11 Gy each (FIGS. 2A, 2B) using a TomoTherapy Hi-Art scanner. The healthy left lung was spared from radiation, so it could be used as a control and also would improve the animal's quality of life. Six of these nine animals received 50 mg/Kg of the radioprotector Amifostine, through an I.V., 20 minutes before each radiation dose. SB-CSI was performed using a 1.5-Tesla clinical MR scanner at baseline, and at 4 and 8 weeks post-radiation treatment. For correlation with the SB-CSI results, each animal was also scanned at the same time points (in the same MR scanner) using a 3D contrast-enhanced MRA sequence (ce-MRA), with 3 cc of a gadolinium chelate (FIGS. 2E, 2F). Within a week of the Xe-129 scan, a hyperpolarized Helium-3 (hp He-3) ventilation scan (FIGS. 2G, 2H) was obtained using the same inhalation and breath-hold technique as those for Xe-129, and a computed tomography (CT) scan was also obtained with a resolution of 0.5×0.5×1.5 mm^3 (FIGS. 2C, 2D).
# SB-CSI maps based on the integrals of each individual peak were calculated separately for each animal and for each time point. At baseline the mean differences between the lungs were statistically identical for both groups, with 1.3%±1.0% (mean±SD) for the control group (radiosurgery only) and 3.2%±3.5% for the group that received radiosurgery and the radioprotector. At 4 weeks post radiosurgery, the mean differences between the lungs were 6.2%±2.3% and 4.6%±3.2% for the control and radioprotector groups, respectively. At 8 weeks post, the mean difference between the lungs increased to 16.7%±3.2% for the control group, while for the animals that received the radioprotector the value remained identical to baseline, at 3.4%±2.6%. […]
# [2] = tested on: rabbit model of lung fibrosis; experiment: hyperpolarized Xe-129 2D/3D-CSI in a rabbit model of lung fibrosis (endotracheal bleomycin); format: in vivo, New Zealand White rabbits; details: after endotracheal instillation, scans at 2, 4 and 7 weeks
# From the text: Three New Zealand White rabbits underwent hyperpolarized Xe-129 2D or 3D-CSI one four different days: one before and 2, 4 and 7 weeks after the endotracheal instillation of bleomycin which induces lung fibrosis, or after the endotracheal instillation of porcine elastase which initially induces lung inflammation but later induces emphysema, and one control animal with no intervention. All scans were done in a 1.5 Tesla clinical system (Avanto, Siemens Medical Solutions) using a transmitter/receiver birdcage RF coil (IGC Medical Advances, Milwaukee, Wis.) tuned to the Xe-129 frequency. Isotopically enriched (˜87%) Xe-129 was polarized to ˜35% using a commercial prototype polarizer (Xemed LLC, NH). For each 2D or 3D acquisition, a single 40-cc volume was administered to the animal, and respiration was suspended for the acquisition (˜6-18s). […]
# Quantification of the maps for the animal in the fibrosis model group show an increase in the tissue/gas and RBC/gas ratios following the instillation of bleomycin, but only the tissue/gas remained elevated, as expected in fibrosis (FIG. 5).
# This Xe-129 dissolved-phase peak is not well resolved in normal rabbits and it was not seen in our control animal. […] Subsequently, each separate peak in the spectrum was quantified using a Principal Component Analysis (PCA) method (33)
Compound,"early treatment toxicity (radiation-induced pulmonary injury) detected by SB-CSI ([1]; 4 and 8 weeks post treatment, versus radiation only)","mean difference between the lungs (SB-CSI maps, mean±SD) ([1]; 4 weeks post radiosurgery, control group 6.2%±2.3%)","mean difference between the lungs (SB-CSI maps, mean±SD) ([1]; 8 weeks post radiosurgery, control group 16.7%±3.2%)",RBC/gas ratio (Xe-129 CSI maps) ([2]; did not remain elevated (FIG. 5)),tissue/gas ratio (Xe-129 CSI maps) ([2]; remained elevated (FIG. 5))
"NCCCNCCSP(=O)(O)O [radioprotector, Amifostine]",reduced early treatment toxicity,4.6%±3.2%,3.4%±2.6%,,
bleomycin,,,,increase,increase
